Experimental data taken from PubChem BioAssay AID1902 (Broad Institute, 2009).
The source made the active and inactive calls.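 How the source made its calls: active means EC50 no more than a set limit of log units above the highest dose; inactive means the rest.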

The molecules below were run against S. pyogenes SKKanGAS, kanamycin survival, BacTiterGlo, 6 h (assay: SKKanGAS survival reduction under kanamycin, dose response, streptokinase promoter inhibitor project, SKKanGAS strain, luminescence, dose confirmation (AID 1902);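 further: lower survival reflects blocked streptokinase promoter driving kanamycin resistance gene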).

Row | Compound | EC50
1 | CCc1ccc2c(c1)C1(NN=C(c3cccc4ccccc34)S1)C(=O)N2 (centres undefined) | 0.115 µM
2 | COc1ccc(C2c3ccc(O)cc3Oc3ncn4nc(-c5ccncc5)nc4c32)cc1OC (centres undefined) | 6.28 µM
3 | CN(C)[C@@H]1C(=O)C(C(N)=O)=C(O)[C@@]2(O)C(=O)C3=C(O)c4c(O)ccc(Cl)c4[C@@](C)(O)[C@H]3C[C@@H]12 | 0.065 µM
4 | O=C(Nc1nnc(-c2ccc(Cl)cc2)o1)c1nc2ccccc2s1 | 0.178 µM
5 | CC(C)C(NC(=O)C(c1ccccc1)c1ccccc1)c1nc2ccccc2[nH]1 (centres undefined) | 2.96 µM
6 | Cc1n[nH]c(=O)c2c(NC(=O)CSc3nnnn3-c3ccccc3)oc(C)c12 | > 15 µM (inactive)
7 | CCOc1ccc(N(CC(=O)NCc2ccc(C)cc2)S(=O)(=O)c2c(C)[nH]c(=O)[nH]c2=O)cc1 | > 15 µM (inactive)
8 | CC(=O)N1c2ccc(S(=O)(=O)N3CCC(C(=O)Nc4cc(C)ccn4)CC3)cc2CC1C (centres undefined) | > 15 µM (inactive)
9 | COc1cccc(/C=N/Nc2nc(Nc3ccccc3)nc(-n3nc(C)cc3C)n2)c1O | 1.97 µM
10 | Oc1ccc(CN2CCc3ccccc3C2)c2cccnc12 | 4.09 µM
11 | O=C(COn1nnc2ccc(C(F)(F)F)cc21)Nc1nnc(-c2ccccc2)o1 | 2.51 µM
12 | CCCCCC(=O)NC(=S)NC1C2CC3CC(C2)CC1C3 (centres undefined) | 3.83 µM
13 | O=C(Nc1cccc(Cl)c1N1CCCC1)c1cc2ccccc2o1 | 4.81 µM
14 | Cc1ccnc(NC(c2ccsc2)c2ccc3ccc(C)nc3c2O)c1 (centres undefined) | 11.7 µM
15 | CCC(=O)Nc1ccc(Nc2nc(C)c([N+](=O)[O-])c(Nc3ccc(NC(=O)CC)cc3)n2)cc1 | 1.56 µM
16 | CCn1cc(C(=O)OCC(=O)c2cc(C)n(-c3cccc(C(F)(F)F)c3)c2C)c(=O)c2ccc(C)nc21 | 9.92 µM
17 | CCOC(=O)c1nc(Nc2ccc(Nc3ccccc3)cc2)c2ccccc2n1 | 9.84 µM
18 | O=C(CN1C(=O)COc2ccc(S(=O)(=O)N3CCCCC3)cc21)NCc1ccc(F)cc1 | > 15 µM (inactive)
19 | CC(C)c1ccc(-c2nc(N3CCCC3)nc3n[nH]c(N)c23)cc1 | 8.74 µM
20 | CCc1ccc(/C=N/n2c(C3CCCCC3)n[nH]c2=S)cc1 | 7.16 µM
21 | CCOC(=O)c1ccc(NC(=O)c2nc[nH]c2C(=O)NCCCCCNC(=O)OC(C)(C)C)cc1 | 2.83 µM
22 | COc1ccc(C(=O)NC(=S)NNC(=O)[C@H]2C[C@@H]2c2ccccc2)cc1OC | 0.914 µM
23 | O=C(Nc1ccccc1)Nc1cc(OCC(F)(F)F)cc(OCC(F)(F)F)c1 | 4.78 µM
24 | O=C(Cc1ccccc1)N/N=C/c1ccccn1 | > 15 µM (inactive)
25 | Cc1cc(C)c(OCC(=O)N2CCN(c3ncc(C(F)(F)F)cc3Cl)CC2)c(C)c1 | 6.88 µM

Row | Compound | EC50
26 | Cc1nn(-c2ccccc2)c2c1C(c1ccc(O)c(O)c1)N1C(=N2)C(Nc2ccccc2)=Nc2ccccc21 (centres undefined) | 1.36 µM
27 | Cc1cccc(NC(=O)C2SC(=Nc3c(C)cccc3C)C(C(=O)N3CCOCC3)=C2N)c1 (centres undefined) | 2.44 µM
28 | O=C(NC(=S)N1CCN(c2c(Cl)cccc2[N+](=O)[O-])CC1)c1cccs1 | 5.15 µM
29 | O=C(Nc1cccc(Cl)c1)Nc1csc([N+](=O)[O-])c1 | 8.11 µM
30 | COc1cccc(-c2nc(N3CC(C)CC(C)C3)c3ccccc3n2)c1O (centres undefined) | 3.05 µM
31 | c1ccc(C(NCCNC(c2ccccc2)c2ccccc2)c2ccccc2)cc1 | 1.05 µM
32 | COc1ccc(N=C2S/C(=C\c3ccc(OC(C)C(=O)O)c(OC)c3)C(=O)N2CCc2c[nH]c3ccccc23)cc1 (centres undefined) | 1.63 µM
33 | COC(=O)c1cc(-c2ccc(OC)cc2F)nc2nc(SC)[nH]c(=O)c12 | 2.57 µM
34 | COc1ccc2c(c1)[nH]c1c(=O)n(CCc3cnc[nH]3)cnc12 | > 15 µM (inactive)
35 | O=C(NC(=S)NNC(=O)[C@H]1C[C@@H]1c1ccccc1)c1ccc(F)cc1 | 0.715 µM
36 | CC1(C)N=C(N)N=C(N)N1c1ccccc1 | 0.325 µM
37 | COC(=O)c1sc(N2C(=O)C(O)=C(C(=O)c3ccc(C)o3)C2c2ccc([N+](=O)[O-])cc2)nc1C (centres undefined) | 4.1 µM
38 | Cc1cc(C)c2c(c1)NC(c1cc3c(cc1Br)OCO3)C1CC=CC21 (centres undefined) | 8.13 µM
39 | O=C(CSc1nnc(-c2ccc3c(c2)OCO3)o1)Nc1ncc(C(F)(F)F)cc1Cl | 0.856 µM
40 | CCCCCCCCOC(=O)c1c(CSC(=N)N)n(C)c2cc(Br)c(OC(C)=O)cc12 | 2.83 µM
41 | Cc1ccc(-c2cc3nc(-c4ccc(Br)cc4)cc(N)n3n2)cc1 | 0.561 µM
42 | CC1(C)S[C@@H]2[C@H](NC(=O)COc3ccccc3)C(=O)N2C1C(=O)OCc1cc2ccccc2n1S(=O)(=O)c1ccccc1 (some centres undefined) | 3.33 µM
43 | O=C1Nc2ccccc2S/C1=C/Nc1cccc(Cl)c1 | 6.77 µM
44 | COc1ccc(C(=O)N2CCc3c([nH]c4ccccc34)C2C(F)(F)F)cc1 (centres undefined) | > 15 µM (inactive)
45 | CC(C)=CCc1c(-c2ccc(O)cc2O)oc2c3c(cc(O)c2c1=O)OC(C)(C)C=C3 | 1.23 µM
46 | CN(C)CCCn1c(SCC(=O)Nc2nc(-c3cccc(Br)c3)cs2)nc2ccccc2c1=O | 4.73 µM
47 | CC(C)c1nc(N2CCCC2)c(C#N)c2c1CCCC2 | 4.1 µM
48 | COc1ccc(CC2=CC(=O)c3ccccc3C2=O)cc1 | 7.96 µM
49 | OC(CNCC1CCCO1)Cn1c2ccc(Br)cc2c2cc(Br)ccc21 (centres undefined) | 3.47 µM
50 | O=C(Cn1nc(CNc2ccc(Cl)cc2)[n+]2c1CCCCC2)c1ccc(Br)cc1 | 10.8 µM

Row | Compound | EC50
51 | Cc1cc(O)c(NC(=S)NC(=O)c2ccc(-c3ccc(Cl)cc3)o2)cc1C | 0.76 µM
52 | Clc1ccc(CO/N=C(\Cn2ccnc2)c2ccc(Cl)cc2Cl)c(Cl)c1 | 1.95 µM
53 | Cc1ccc(C2Oc3ccccc3C3=C2C(c2cccs2)n2ncnc2N3)cc1 (centres undefined) | 3.76 µM
54 | O=C(/C=C/c1cccs1)NC(=S)NNC(=O)Cc1cccs1 | 2.56 µM
55 | O=C1/C(=C\c2cccc(O)c2O)SC(=S)N1Cc1ccccc1 | 2.2 µM
56 | COC(=O)c1cc(-c2cccc(OC)c2)c2c(=O)[nH]c(=O)n(C)c2n1 | 4.31 µM
57 | COc1cccc(NCc2cc(=O)oc3cc(C)c(O)cc23)c1 | 1.85 µM
58 | C/C(=N\NC(=O)c1ccc(Cl)cc1)c1ccccn1 | 1.48 µM
59 | Cc1ccc(Cc2cnc(N3C(=N)SC(c4ccccc4)C3=O)s2)cc1 (centres undefined) | 0.105 µM
60 | OC1(C#Cc2c(-c3ccsc3)oc3ccc(N4CCOCC4)cc23)CCCCC1 | 3.59 µM
61 | CCc1ccccc1NC(=O)NC(C)c1ccc2c(c1)OCO2 (centres undefined) | > 15 µM (inactive)
62 | FC(F)(F)c1cccc(NC(=S)NNC(=S)Nc2cccc(C(F)(F)F)c2)c1 | 0.804 µM
63 | Cc1cc(C)n(-c2nc(SCC(=O)O)c3c4c(sc3n2)CCCC4)n1 | 5.93 µM
64 | CCc1noc(C)c1C(=O)OCC(=O)NC(=O)c1ccccc1 | > 15 µM (inactive)
65 | Cc1ccc(N=Nc2ccc(O)c(P(=O)(c3ccccc3)c3ccccc3)c2)cc1 | 3.36 µM
66 | CC(Oc1ccc2ccccc2c1)C(=O)NNC(=S)NC(=O)c1ccco1 (centres undefined) | 0.149 µM
67 | Oc1c(CN2CCN(c3ccc(F)cc3)CC2)cc(Cl)c2cccnc12 | 1.01 µM
68 | CC(C)Nc1nc(Oc2cccc(Cl)c2Cl)cc(C(F)(F)F)n1 | 5.29 µM
69 | Oc1ccc(Cl)cc1C1=NNC(c2ccc(Cl)cc2)C1 (centres undefined) | 1.1 µM
70 | CCN1/C(=C/C(C)=C/c2sc3ccccc3[n+]2CC)Sc2ccccc21 | 2.03 µM
71 | CC1C(=O)C(C)C(c2cc(Cl)ccc2O)NC1c1cc(Cl)ccc1O (centres undefined) | 2.32 µM
72 | COC(=O)[C@H]1[C@H](CCc2ccccc2)NC(=O)N(Cc2ccccc2)[C@@H]1C | > 15 µM (inactive)
73 | c1ccc2c(c1)nc(Nc1ccc(N3CCCCC3)cc1)c1nncn12 | 6.03 µM
74 | O=C(NC(=S)NNC(=O)[C@H]1C[C@@H]1c1ccccc1)c1cccc(F)c1 | 0.756 µM
